# Source: paper PMC12040169 (PLOS Biology, 2025)
# Assay: in vitro
# Conditions: human, hela cells, % viability
row,Structure (SMILES),"viability at 28.5 h, 10 µM [%]"
1,O=C(NC(NC1CCS(=O)(=O)C1)C(Cl)(Cl)Cl)c1ccc(Br)cc1 (stereo not drawn) [CBK261091],98.2
2,CN(C)CCO/N=C(\c1ccccc1)c1ccncc1 [CBK261095G],94.2
3,O=C(O)c1cccc(NC(=O)c2c(C(=O)O)cccc2[N+](=O)[O-])c1 [CBK261096],99.6
4,O=C(O)c1cccc(NCN2C(=O)c3ccc([N+](=O)[O-])cc3C2=O)c1 [CBK261100],96
5,O=C(O)c1ccc(C(=O)O)c(-c2ccccc2)c1 [CBK261102],104
6,CCOP(=O)(O)c1c([N+](=O)[O-])cc(C(F)(F)F)cc1[N+](=O)[O-] [CBK261106G],103
7,CC(C)NCC(O)Cn1c2c(c3ccccc31)CCc1c-2cnn1-c1ccccc1 (stereo not drawn) [CBK261107],99.6
8,Nc1nonc1C(=NCc1ccccc1)NO [CBK261109],105
9,NS(=O)(=O)c1ccc(Nc2nc3nonc3nc2Nc2ccc(S(N)(=O)=O)cc2)cc1 [CBK261110],97.5
10,O=C(Nn1cnnc1)c1ccc(C(=O)Nn2cnnc2)cc1 [CBK261111],101
11,O=C(NC(C(=O)N/N=C/c1ccc(Cl)cc1Cl)c1n[nH]c(=O)c2ccccc12)c1ccccc1 (stereo not drawn) [CBK261118],103
12,Cc1ccc(S(=O)(=O)Nc2cc(C)on2)cc1 [CBK261119],93.7
13,O=C(CNc1ccc2ccccc2c1)N/N=C/c1cc2c(cc1[N+](=O)[O-])OCO2 [CBK261126],83.1
14,O=C(Nc1cccc2nsnc12)c1cc(Cl)ccc1NS(=O)(=O)c1cccc2nsnc12 [CBK261129],80.9
15,CCN1CCN(c2ccc(Nc3ccnc4cc5ccccc5cc34)cc2)CC1 [CBK261130],79.8
16,COc1ccc(N(CCN2CCCCC2)S(=O)(=O)c2ccc(C)cc2)cc1 [CBK261131],98.7

row,Structure (SMILES),"viability at 28.5 h, 10 µM [%]"
1,O=S(=O)(NCCN1CCCC1)c1cccc2nsnc12 [CBK261132],97.3
2,O=C1c2ccccc2C(=O)N1CC1c2ccccc2CCN1S(=O)(=O)c1cccc2nsnc12 (stereo not drawn) [CBK261133],108
3,O=C1CN(S(=O)(=O)CCOc2ccccc2)CC(=O)N1CCc1ccccc1 [CBK261134],92.8
4,O=S(=O)(NCc1nc2ccccc2[nH]1)c1ccc(Cl)c(Cl)c1 [CBK261137],86.2
5,N#CCCN(CCc1ccccc1)S(=O)(=O)c1cccc2nsnc12 [CBK261138],104
6,Cc1ccc(S(=O)(=O)NCC(=O)O)c2nsnc12 [CBK261140],93.1
7,Brc1cccc(/C=N/c2ccc3nc(-c4ccccc4)[nH]c3c2)c1 [CBK261143],109
8,NNC(=O)C(NC(=O)c1ccccc1)c1n[nH]c(=O)c2ccccc12 (stereo not drawn) [CBK261144],92.9
9,Nc1ccc(Cc2ccc(N)c(O)c2)cc1O [CBK261149],100
10,N#Cc1ccc(Oc2ccc3c(c2)-c2cc(Oc4ccc(C#N)c(C#N)c4)ccc2S3(=O)=O)cc1C#N [CBK261151],92.4
11,Nc1ccc(-c2nc(-c3ccccc3)c3cc(-c4ccc5nc(-c6ccc(N)cc6)nc(-c6ccccc6)c5c4)ccc3n2)cc1 [CBK261152],107
12,Nc1ccc(Cc2ccc(N)c(C(=O)O)c2)cc1C(=O)O [CBK261153],92.3
13,Cc1ccc(S(=O)(=O)Nc2ccc(C3(c4ccc(NS(=O)(=O)c5ccc(C)cc5)cc4)c4ccccc4-c4ccccc43)cc2)cc1 [CBK261154],102
14,N#Cc1ccc(Oc2cccc(/N=C/c3ccc(/C=N/c4cccc(Oc5ccc(C#N)cc5)c4)cc3)c2)cc1 [CBK261157],93.7
15,OB(O)c1ccc(Oc2ccc(B(O)O)cc2)cc1 [CBK261159],102

# Same assay, conditions: human, hela cells, % viability, bulk resorufin, single well
row,Structure (SMILES),"viability at 28.5 h, 10 µM [%]"
1,O=C1NC(=O)N(Cc2ccccc2)C(=O)/C1=N\Nc1ccc([N+](=O)[O-])cc1 [CBK261123],94.5
2,CCOc1ccc(N2C(=O)NC(=O)/C(=C\NCCc3c[nH]c4ccccc34)C2=O)cc1 [CBK261125],104
